Experimental data from patent US11198713B2, “Agents modulating beta-catenin functions and methods thereof” (FOG PHARMACEUTICALS, INC., priority 2017, dated 2021).
pEC50: −log10 of the molar value.

Biological target: T1, full-length beta-catenin (Axin site) (Homo sapiens, UniProt P35222)
T1 construct: 15 nM full-length beta-catenin, 20 nM FITC labeled peptide in buffer
T1 sequence (P35222 1-781): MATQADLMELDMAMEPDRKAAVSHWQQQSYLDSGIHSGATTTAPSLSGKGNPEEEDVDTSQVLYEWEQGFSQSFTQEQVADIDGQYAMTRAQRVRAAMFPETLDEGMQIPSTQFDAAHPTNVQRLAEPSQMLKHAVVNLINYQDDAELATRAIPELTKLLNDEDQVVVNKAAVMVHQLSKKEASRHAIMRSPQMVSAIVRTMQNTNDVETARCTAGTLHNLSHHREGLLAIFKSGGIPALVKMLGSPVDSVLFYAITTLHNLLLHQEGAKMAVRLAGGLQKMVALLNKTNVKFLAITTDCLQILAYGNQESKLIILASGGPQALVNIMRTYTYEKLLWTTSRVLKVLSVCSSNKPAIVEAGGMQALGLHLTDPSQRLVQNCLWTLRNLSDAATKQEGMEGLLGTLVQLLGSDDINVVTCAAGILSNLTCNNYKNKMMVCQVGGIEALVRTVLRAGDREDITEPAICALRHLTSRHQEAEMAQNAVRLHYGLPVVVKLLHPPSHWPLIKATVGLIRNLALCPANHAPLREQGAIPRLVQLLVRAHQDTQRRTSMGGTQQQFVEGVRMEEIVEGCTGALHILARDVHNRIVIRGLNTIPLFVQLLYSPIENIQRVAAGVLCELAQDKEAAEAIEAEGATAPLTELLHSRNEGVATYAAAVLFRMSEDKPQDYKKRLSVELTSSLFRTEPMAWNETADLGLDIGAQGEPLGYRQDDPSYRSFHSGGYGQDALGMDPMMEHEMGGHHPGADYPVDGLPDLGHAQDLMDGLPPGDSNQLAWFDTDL
Test: Competition fluorescence polarization assay (Axin site probe)
Assay type: binding
Details: competition fluorescence polarization, Table 2; read-out: in vitro FP EC50
Summary of the method: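 Competition FP: 15 nM full-length β-catenin pre-incubated 5 min with 20 nM FITC-labelled stapled Axin-site peptide, then titrated peptide added (3-fold series from 5 μM) for 15 min in the dark. Buffer 50 mM Tris pH 8.0, 250 mM NaCl, 2% glycerol, 0.5 mM EDTA; duplicate reads.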

pEC50, < 5.30:
CCC[C@H](NC(=O)[C@]12CCN(C1)C(=O)OCC=CCCCCCC[C@@](C)(NC(=O)[C@H](C)NC(C)=O)C(=O)N[C@@H]([C@@H](C)CC)C(=O)N[C@@H](CC(C)C)C(=O)N[C@@H](CC(=O)O)C(=O)N[C@@H](C)C(=O)N[C@@H](Cc1ccccn1)C(=O)N[C@@H]([C@@H](C)CC)C(=O)N2)C(=O)N[C@H](C(=O)N[C@@H](Cc1c[nH]c2ccccc12)C(N)=O)C(C)C (single isomer, unassigned) [FP0567c Isomer 1, Ac-A-R8-I-L-D-A-2pyr-I-MB-Nva-V-W-NH2]
CCC[C@H](NC(=O)[C@]12CCN(C1)C(=O)OCC=CCCCCCC[C@@](C)(NC(=O)[C@H](C)NC(C)=O)C(=O)N[C@@H]([C@@H](C)CC)C(=O)N[C@@H](CC(C)C)C(=O)N[C@@H](CC(=O)O)C(=O)N[C@@H](C)C(=O)N[C@@H](Cc1ccccn1)C(=O)N[C@@H]([C@@H](C)CC)C(=O)N2)C(=O)N[C@H](C(=O)N[C@@H](Cc1c[nH]c2ccccc12)C(N)=O)C(C)C (single isomer, unassigned) [FP0567c Isomer 2, Ac-A-R8-I-L-D-A-2pyr-I-MB-Nva-V-W-NH2]
CC[C@H](C)[C@@H]1NC(=O)[C@H](Cc2ccccn2)NC(=O)[C@H](C)NC(=O)[C@H](CC(=O)O)NC(=O)[C@H](CC(C)C)NC(=O)[C@H]([C@@H](C)CC)NC(=O)[C@](C)(NC(=O)[C@H](C)NC(C)=O)CCCCCCC=CCOC(=O)N2CC[C@@](C(=O)N[C@H](C(=O)N[C@H](C(=O)N[C@@H](Cc3c[nH]c4ccccc34)C(N)=O)C(C)C)C(C)(C)C)(C2)NC1=O (single isomer, unassigned) [FP0568c Isomer 1, Ac-A-R8-I-L-D-A-2pyr-I-MB-tLeu-V-W-NH2]
CC[C@H](C)[C@@H]1NC(=O)[C@H](Cc2ccccn2)NC(=O)[C@H](C)NC(=O)[C@H](CC(=O)O)NC(=O)[C@H](CC(C)C)NC(=O)[C@H]([C@@H](C)CC)NC(=O)[C@](C)(NC(=O)[C@H](C)NC(C)=O)CCCCCCC=CCOC(=O)N2CC[C@@](C(=O)N[C@H](C(=O)N[C@H](C(=O)N[C@@H](Cc3c[nH]c4ccccc34)C(N)=O)C(C)C)C(C)(C)C)(C2)NC1=O (single isomer, unassigned) [FP0568c Isomer 2, Ac-A-R8-I-L-D-A-2pyr-I-MB-tLeu-V-W-NH2]
CC[C@H](C)[C@@H]1NC(=O)[C@H](Cc2ccccn2)NC(=O)[C@H](C)NC(=O)[C@H](CC(=O)O)NC(=O)[C@H](CC(C)C)NC(=O)[C@H]([C@@H](C)CC)NC(=O)[C@](C)(NC(=O)[C@H](C)NC(C)=O)CCCCCCC=CCOC(=O)N2CC[C@@](C(=O)N[C@@H](Cc3ccco3)C(=O)N[C@H](C(=O)N[C@@H](Cc3c[nH]c4ccccc34)C(N)=O)C(C)C)(C2)NC1=O (single isomer, unassigned) [FP0569c Isomer 1, Ac-A-R8-I-L-D-A-2pyr-I-MB-fur-V-W-NH2]
CC[C@H](C)[C@@H]1NC(=O)[C@H](Cc2ccccn2)NC(=O)[C@H](C)NC(=O)[C@H](CC(=O)O)NC(=O)[C@H](CC(C)C)NC(=O)[C@H]([C@@H](C)CC)NC(=O)[C@](C)(NC(=O)[C@H](C)NC(C)=O)CCCCCCC=CCOC(=O)N2CC[C@@](C(=O)N[C@@H](Cc3ccco3)C(=O)N[C@H](C(=O)N[C@@H](Cc3c[nH]c4ccccc34)C(N)=O)C(C)C)(C2)NC1=O (single isomer, unassigned) [FP0569c Isomer 2, Ac-A-R8-I-L-D-A-2pyr-I-MB-fur-V-W-NH2]
CC[C@H](C)[C@@H]1NC(=O)[C@H](Cc2ccccn2)NC(=O)[C@H](C)NC(=O)[C@H](CC(=O)O)NC(=O)[C@H](CC(C)C)NC(=O)[C@H]([C@@H](C)CC)NC(=O)[C@](C)(NC(=O)[C@H](C)NC(C)=O)CCCCCCC=CCOC(=O)N2CC[C@@](C(=O)NC(C)(C)C(=O)N[C@H](C(=O)N[C@@H](Cc3c[nH]c4ccccc34)C(N)=O)C(C)C)(C2)NC1=O (single isomer, unassigned) [FP0570c Isomer 1, Ac-A-R8-I-L-D-A-2pyr-I-MB-Aib-V-W-NH2]
CC[C@H](C)[C@@H]1NC(=O)[C@H](Cc2ccccn2)NC(=O)[C@H](C)NC(=O)[C@H](CC(=O)O)NC(=O)[C@H](CC(C)C)NC(=O)[C@H]([C@@H](C)CC)NC(=O)[C@](C)(NC(=O)[C@H](C)NC(C)=O)CCCCCCC=CCOC(=O)N2CC[C@@](C(=O)NC(C)(C)C(=O)N[C@H](C(=O)N[C@@H](Cc3c[nH]c4ccccc34)C(N)=O)C(C)C)(C2)NC1=O (single isomer, unassigned) [FP0570c Isomer 2, Ac-A-R8-I-L-D-A-2pyr-I-MB-Aib-V-W-NH2]
CC[C@H](C)[C@@H]1NC(=O)[C@H](Cc2ccccn2)NC(=O)[C@H](C)NC(=O)[C@H](CC(=O)O)NC(=O)[C@H](CC(C)C)NC(=O)[C@H]([C@@H](C)CC)NC(=O)[C@](C)(NC(=O)[C@H](C)NC(C)=O)CCCCCCC=CCOC(=O)N2CC[C@@](C(=O)N[C@@H](Cc3cccs3)C(=O)N[C@H](C(=O)N[C@@H](Cc3c[nH]c4ccccc34)C(N)=O)C(C)C)(C2)NC1=O (single isomer, unassigned) [FP0571c Isomer 1, Ac-A-R8-I-L-D-A-2pyr-I-MB-thi-V-W-NH2]
CC[C@H](C)[C@@H]1NC(=O)[C@H](Cc2ccccn2)NC(=O)[C@H](C)NC(=O)[C@H](CC(=O)O)NC(=O)[C@H](CC(C)C)NC(=O)[C@H]([C@@H](C)CC)NC(=O)[C@](C)(NC(=O)[C@H](C)NC(C)=O)CCCCCCC=CCOC(=O)N2CC[C@@](C(=O)N[C@@H](Cc3cccs3)C(=O)N[C@H](C(=O)N[C@@H](Cc3c[nH]c4ccccc34)C(N)=O)C(C)C)(C2)NC1=O (single isomer, unassigned) [FP0571c Isomer 2, Ac-A-R8-I-L-D-A-2pyr-I-MB-thi-V-W-NH2]
CC[C@H](C)[C@@H]1NC(=O)[C@H](Cc2ccccn2)NC(=O)[C@H](C)NC(=O)[C@H](CC(=O)O)NC(=O)[C@H](CC(C)C)NC(=O)[C@H]([C@@H](C)CC)NC(=O)[C@](C)(NC(=O)[C@H](C)NC(C)=O)CCCCCCC=CCOC(=O)N2CC[C@@](C(=O)N[C@@H](Cc3ccccn3)C(=O)N[C@H](C(=O)N[C@@H](Cc3c[nH]c4ccccc34)C(N)=O)C(C)C)(C2)NC1=O (single isomer, unassigned) [FP0572c Isomer 1, Ac-A-R8-I-L-D-A-2pyr-I-MB-2pyr-V-W-NH2]
CC[C@H](C)[C@@H]1NC(=O)[C@H](Cc2ccccn2)NC(=O)[C@H](C)NC(=O)[C@H](CC(=O)O)NC(=O)[C@H](CC(C)C)NC(=O)[C@H]([C@@H](C)CC)NC(=O)[C@](C)(NC(=O)[C@H](C)NC(C)=O)CCCCCCC=CCOC(=O)N2CC[C@@](C(=O)N[C@@H](Cc3cccnc3)C(=O)N[C@H](C(=O)N[C@@H](Cc3c[nH]c4ccccc34)C(N)=O)C(C)C)(C2)NC1=O (single isomer, unassigned) [FP0573c Isomer 1, Ac-A-R8-I-L-D-A-2pyr-I-MB-3pyr-V-W-NH2]
CC[C@H](C)[C@@H]1NC(=O)[C@H](Cc2ccccn2)NC(=O)[C@H](C)NC(=O)[C@H](CC(=O)O)NC(=O)[C@H](CC(C)C)NC(=O)[C@H]([C@@H](C)CC)NC(=O)[C@](C)(NC(=O)[C@H](C)NC(C)=O)CCCCCCC=CCOC(=O)N2CC[C@@](C(=O)N[C@@H](Cc3cccnc3)C(=O)N[C@H](C(=O)N[C@@H](Cc3c[nH]c4ccccc34)C(N)=O)C(C)C)(C2)NC1=O (single isomer, unassigned) [FP0573c Isomer 2, Ac-A-R8-I-L-D-A-2pyr-I-MB-3pyr-V-W-NH2]
